# Patent US20080004290A1, “Anti-Cancer Agents” (THE UNIVERSITY OF QUEENSLAND, priority 2003, published 2008)
# Where two headings read alike, the source gives them in different places.
# How the values were obtained:
# Format in all cases: cell-based, human
# [1] = test system: NFF, neonatal foreskin fibroblasts; assay: Cell survival assay (clonogenic survival, SRB), normal cells; conditions: Homo sapiens, Fibroblast, NFF normal fibroblasts; 24 h with compound, further 72 h growth, SRB; read-out: IC50 (uM) NFF
# How it was run: (§1)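 Cells (5×10^3/well, RPMI 1640 with 10% FCS) treated 24 h with compound at 0.01-10 μg/mL, then washed and grown 72 h drug-free at 37 °C, 5% CO2. Survival read by SRB staining after methylated-spirit fixation, absorbance 564 nm.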
# H520 cells = assay: Cell survival assay (SRB); conditions: for IC50: Homo sapiens, NCI-H520, read-out: Cytoselectivities (nM) H520; for Selectivity Index H520: Table 13, S enantiomer, IC50(NFF)/IC50(cancer cell line)
# Experimental: (§2) Cell Lines and Culture Medium. All cell lines used in this study have been described previously (Parsons et al., 1986; Todaro et al., 1980; Glenn et al., 2004). All cell lines were cultured in 10% heat-inactivated foetal calf serum (CSL, Australia) in RPMI 1640 medium supplemented with 100 U/mL penicillin, 100 μg/mL streptomycin, and 3 mM HEPES at 5% CO2, 99% humidity at 37° C. Primary human fibroblasts were obtained from neonatal foreskins and cultured in the above medium. Routine mycoplasma tests were performed using Hoechst stain^i and were always negative.
# (§3) Cell Survival Assay. Cells were plated into 96-well microtitre plates at 5×10^3 cells/well, and allowed to adhere overnight. Test compounds were added to culture medium at the indicated concentrations, and plates incubated in the above conditions for 24 hours. Following this incubation period, compounds and media were removed, and replaced with fresh culture medium. Cells were then grown for a further 72 hours before assay using sulforhodamine B (SRB; Sigma, St. Louis, Mo.) as previously described. Briefly, the culture medium was removed from the 96-well microtitre plates and the plates washed twice with phosphate buffered saline (PBS), before the cells were fixed with methylated spirits for 15 minutes. The plates were then rinsed with tap water and the fixed cells stained with 50 μL/well of SRB solution (0.4% sulforhodamine B (w/v) in 1% (v/v) acetic acid) over a period of 1 hour. The SRB solution was then removed from the wells and the plates rapidly washed two times with 1% (v/v) acetic acid. Protein bound dye was then solubilised with the addition of 100 μL of 10 mM unbuffered Tris, and incubated for 15 min at 25° C. Plates were then read at 564 nm on a VERSA max tunable microplate reader (Molecular Devices, Sunnyvale, Calif.).
# PC-3 cells = assay: Cell survival assay (SRB); conditions: for IC50: Homo sapiens, PC-3, read-out: Cytoselectivities (nM) PC-3; for Selectivity Index PC-3: Table 13, S enantiomer, IC50(NFF)/IC50(cancer cell line)
# Experimental: as §2, §3
# SK-MEL-5 cells = assay: Cell survival assay (SRB); conditions: for IC50: Homo sapiens, SK-MEL-5, read-out: Cytoselectivities (nM) SK-MEL-5; for Selectivity Index SK-MEL-5: Table 13, S enantiomer, IC50(NFF)/IC50(cancer cell line)
# Experimental: as §2, §3
# Col208 cells = assay: Cell survival assay (SRB); conditions: for IC50: Homo sapiens, Col208 (colon), read-out: Cytoselectivities (nM) Col208; for Selectivity Index Col208: Table 13, S enantiomer, IC50(NFF)/IC50(cancer cell line)
# Experimental: as §2, §3
# A549 cells = assay: Cell survival assay (SRB); conditions: for IC50: Homo sapiens, A549 (lung), read-out: Cytoselectivities (nM) A549; for Selectivity Index A549: Table 13, S enantiomer, IC50(NFF)/IC50(cancer cell line)
# Experimental: as §2, §3
# HT29 cells = assay: Cell survival assay (SRB); conditions: for IC50: Homo sapiens, HT-29, HT29 (colon), read-out: Cytoselectivities (nM) HT29; for Selectivity Index HT29: Table 13, S enantiomer, IC50(NFF)/IC50(cancer cell line)
# Experimental: as §2, §3
# T-47D cells = assay: Cell survival assay (SRB); conditions: for IC50: Homo sapiens, T47D, read-out: Cytoselectivities (nM) T-47D; for Selectivity Index T-47D: Table 13, S enantiomer, IC50(NFF)/IC50(cancer cell line)
# Experimental: as §2, §3
# HOP62 cells = assay: Cell survival assay (SRB); conditions: for IC50: Homo sapiens, HOP-62, HOP62 (lung), read-out: Cytoselectivities (nM) HOP62; for Selectivity Index HOP62: Table 13, S enantiomer, IC50(NFF)/IC50(cancer cell line)
# Experimental: as §2, §3
# MM96L melanoma cells = assay: Cell survival assay (clonogenic survival, SRB); conditions: for IC50: Homo sapiens, MM96L; for SI (Selectivity Index = IC50 (NFF)/IC50 (MM96L)): NFF vs MM96L; for Selectivity Index MM96L: Table 13, S enantiomer, IC50(NFF)/IC50(cancer cell line)
# How it was run: as §1
# [2] = test system: DU145 prostate cancer cells; assay: Cell survival assay (SRB); conditions: for IC50: Homo sapiens, DU-145, DU145 (prostate), read-out: Cytoselectivities (nM) DU145; for Selectivity Index DU145: Table 13, S enantiomer, IC50(NFF)/IC50(cancer cell line)
# Experimental: as §2, §3
# (§4) For comparison their results are also shown for MM96L and NFF cell lines.
# [3] = test system: MCF-7 breast cancer cells; assay: Cell survival assay (SRB); conditions: for IC50: Homo sapiens, MCF7, MCF-7 (breast), read-out: Cytoselectivities (nM) MCF-7; for Selectivity Index MCF-7: Table 13, S enantiomer, IC50(NFF)/IC50(cancer cell line)
# Experimental: as §2, §3, §4
# SkMel28 melanoma cells = assay: Cell survival assay (SRB); conditions: for IC50: Homo sapiens, SK-MEL-28 (melanoma), read-out: Cytoselectivities (nM) SK-MEL-28; for Selectivity Index SK-MEL-28: Table 13, S enantiomer, IC50(NFF)/IC50(cancer cell line)
# Experimental: as §2, §3, §4
# JAM ovarian cancer cells = assay: Cell survival assay (SRB); conditions: for IC50: Homo sapiens, read-out: Cytoselectivities (nM) JAM; for Selectivity Index JAM: Table 13, S enantiomer, IC50(NFF)/IC50(cancer cell line)
# Experimental: as §2, §3, §4
# [4] = test system: CI-80-13S ovarian cancer cells; assay: Cell survival assay (SRB); conditions: for IC50: Homo sapiens, read-out: Cytoselectivities (nM) CI80-13S; for Selectivity Index CI80-13S: Table 13, S enantiomer, IC50(NFF)/IC50(cancer cell line)
# Experimental: as §2, §3, §4
# [5] = MM96L melanoma, 24 h with compound, further 72 h growth, SRB, read-out: IC50 (uM) MM96L
# [6] = Table 12, read-out: Cytoselectivities (nM) MM96L
# [7] = most preferred compounds, exemplary examples, read-out: potency of IC50 against the MM96 melanoma cells
Compound,IC50 [1],IC50 (H520 cells),Selectivity Index H520 (H520 cells),IC50 (PC-3 cells),Selectivity Index PC-3 (PC-3 cells),IC50 (SK-MEL-5 cells),Selectivity Index SK-MEL-5 (SK-MEL-5 cells),IC50 (Col208 cells),Selectivity Index Col208 (Col208 cells),IC50 (A549 cells),Selectivity Index A549 (A549 cells),IC50 (HT29 cells),Selectivity Index HT29 (HT29 cells),IC50 (T-47D cells),Selectivity Index T-47D (T-47D cells),IC50 (HOP62 cells),Selectivity Index HOP62 (HOP62 cells),IC50 (MM96L melanoma cells; [5]),IC50 (MM96L melanoma cells; [7]),SI (Selectivity Index = IC50 (NFF)/IC50 (MM96L)) (MM96L melanoma cells),further results
CN(C)c1ccc(C(=O)N[C@@H](CCCCCC(=O)NO)C(=O)Nc2cccc3cccnc23)cc1 [Example 126],0.57 ± 0.07 µM,63 nM,9,220 nM,3,32 nM,18,223 nM,1.5,148 nM,4,178 nM,3,45 nM,13,137 nM,4,0.02 ± 0.01 µM,≤ 0.5 µM,28,IC50 (MM96L melanoma cells; [6]): 0.051 µM; Selectivity Index MM96L (MM96L melanoma cells): 11; IC50 [2]: 61 nM; Selectivity Index DU145 [2]: 9; IC50 [3]: 35 nM; Selectivity Index MCF-7 [3]: 16; IC50 (SkMel28 melanoma cells): 73 nM; Selectivity Index SK-MEL-28 (SkMel28 melanoma cells): 8; IC50 (JAM ovarian cancer cells): 85 nM; Selectivity Index JAM (JAM ovarian cancer cells): 7; IC50 [4]: 65 nM; Selectivity Index CI80-13S [4]: 9
O=C(CCCCC[C@H](NC(=O)c1cc2ccccc2[nH]1)C(=O)Nc1cccc2cccnc12)NO [Example 132],0.337 µM,26 nM,13,148 nM,2,18 nM,18,102 nM,3,69 nM,5,79 nM,4,19 nM,18,63 nM,5,0.021 µM,≤ 0.5 µM,16,IC50 (MM96L melanoma cells; [6]): 0.018 µM; Selectivity Index MM96L (MM96L melanoma cells): 19; IC50 [2]: 22 nM; Selectivity Index DU145 [2]: 15; IC50 [3]: 19 nM; Selectivity Index MCF-7 [3]: 18; IC50 (SkMel28 melanoma cells): 33 nM; Selectivity Index SK-MEL-28 (SkMel28 melanoma cells): 10; IC50 (JAM ovarian cancer cells): 48 nM; Selectivity Index JAM (JAM ovarian cancer cells): 7; IC50 [4]: 20 nM; Selectivity Index CI80-13S [4]: 17
O=C(/C=C/c1ccccc1)N[C@@H](CCCCCC(=O)NO)C(=O)Nc1cccc2cccnc12 [Example 146],1.24 µM,27 nM,46,109 nM,11,29 nM,43,141 nM,9,73 nM,17,99 nM,13,20 nM,63,65 nM,19,0.021 µM,≤ 0.5 µM,58.9,IC50 (MM96L melanoma cells; [6]): 0.02 µM; Selectivity Index MM96L (MM96L melanoma cells): 63; IC50 [2]: 30 nM; Selectivity Index DU145 [2]: 41; IC50 [3]: 17 nM; Selectivity Index MCF-7 [3]: 71; IC50 (SkMel28 melanoma cells): 37 nM; Selectivity Index SK-MEL-28 (SkMel28 melanoma cells): 34; IC50 (JAM ovarian cancer cells): 49 nM; Selectivity Index JAM (JAM ovarian cancer cells): 25; IC50 [4]: 28 nM; Selectivity Index CI80-13S [4]: 44
O=C(CCCCC[C@H](NC(=O)c1cc2c(Br)cccc2[nH]1)C(=O)NCc1ccccc1)NO [Example 165],1.94 µM,,,,,,,,,,,,,,,,,0.485 µM,,4.0,
O=C(CCCCC[C@H](NC(=O)c1cc2c(O)cccc2[nH]1)C(=O)NCc1ccccc1)NO [Example 166],2.21 µM,,,,,,,,,,,,,,,,,0.331 µM,≤ 0.5 µM,6.7,
O=C(/C=C/c1c[nH]c2ccccc12)N[C@@H](CCCCCC(=O)NO)C(=O)NCc1ccccc1 [Example 167],10.4 µM,,,,,,,,,,,,,,,,,3.24 µM,,3.2,
